Results as given in US20250129021A1, “SMALL MOLECULE PROTEIN SYNTHESIS MODULATORS” (Interdict Bio, Inc., priority 2023, published 2025).

Experiments:
Assay type in all cases: biochemical
Details in all cases: HeLa S3 lysate, sfGFP/mCherry ratio, 2 hrs at 30° C.
MYC = experiment: In vitro transcription-translation (IVTT) assay, MYC reporter
Outline: (§1)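 Reporter: mCherry, P2A, then 3×FLAG-target peptide-sfGFP fusion, IRES-initiated; HeLa S3 lysate IVTT; cpd dilutions 30 μM−0.1 μM half-log in 100% DMSO (dilution-plate conc); DNA added last; 2 h, 30° C; PBS quench.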

MCL-1 = experiment: In vitro transcription-translation (IVTT) assay, MCL-1 reporter
Outline: as §1

BCL-2 = experiment: In vitro transcription-translation (IVTT) assay, BCL-2 reporter
Text: All reporter constructs have been cloned into the pT7CFE1-CHis plasmid (ThermoFisher #88860) using Gibson assembly procedures (NEB #E2611L). The parental pT7CFE1-CHis plasmid contains an EMCV IRES at the 5′UTR for translation initiation, a multiple-cloning site (MCS) for gene insertion, an optional C-terminal His-epitope tag, and polyA sequence in the 3′UTR to regulate mRNA stability. All reporters are designed to be inserted at the MCS to include a red fluorescent protein (mCherry), P2A self-cleaving peptide which releases the preceding mCherry protein product, and a fusion open reading frame containing a 3×FLAG epitope, a peptide sequence of interest (TEST), and green fluorescent protein (sfGFP).
Construct Plasmid Preparation: All plasmids are isolated from MACH1 cells (ThermoFisher) grown overnight in ampicillin-containing luria broth, and purified using ZymoPure Express Plasmid Midiprep Kit (Zymo Research). Constructs are sequenced verified and diluted to a working concentration of 110 ng/μL.
HeLa S3 Lysate Preparation: HeLa S3 cell pellets are acquired from Ipracell/Ipratech (Belgium) and shipped as 4 mL frozen cell pellets on dry ice for storage at −80° C. until use. The procedure for lysate preparation is as follows. Prepare 1× Lysis Buffer, cold and stored on ice:
Each preparation takes 8 cell pellets (4 ml packed volume each, approximately 1.0×10^9 cells per pellet). Thaw cell pellets from −80° C. on ice for 90 mins. Lay pellets horizontally on top of the ice and rotate every 30 mins to ensure even thawing. Once thawed, add 4 mL of cold lysis buffer to each pellet, and using a serological pipet, gently pipet up and down to break up clumps. Incubate resuspended cells in ice for an additional 30 mins (plunged into ice). During 30 min incubation, rinse and RNase-zap (Ambion) glass dounces (use loose pestle “A”), gently dry and place on ice until needed. Prepare RNase-free Eppendorf tubes for spinning and for batch storage. Add batch labels to 1.5-1.7 mL RNase-free microcentrifuge tubes (labeling scheme below). Each batch will have an extra 1.5-1.7 mL RNase-free microcentrifuge tube for 40 μL of lysate, label the top of this tube (labeling scheme below). After 30 min incubation, transfer all 8 mL of cell pellet to dounce. Cell lysis is complete after douncing 100 times. Aliquot cell lysis into 1.5-1.7 mL temporary-microcentrifuge tubes. Place tubes in centrifuge with “fins” out, and spin at 1,200×g for 5 mins. After the first spin use a 1 mL pipet to resuspend each tube and repeat spin. This acts as an additional lysis step, is more vigorous and increases lysate yield. During second spin get liquid N2 and a fresh conical tube on ice. After spin is complete, transfer supernatant (lysate) from microcentrifuge tubes into the 50 mL conical tube and keep on ice. Repeat steps 10-14 for all other cell pellets until completed. Once all cell lysate has been transferred to the 50 mL conical tube pipet to mix so the solution is homogenous. Transfer 1 mL of lysate into batch-labeled microcentrifuge tubes and flash freeze in liquid nitrogen. Be sure to pipet up and down to mix throughout transfer step. Place all tubes in the […] for long-term storage.
In vitro transcription-translation assay setup: Each assay includes a master mix containing lysate and shared components, a 96-well plate containing compound titrations for testing, a 96-well DNA plate with reporter constructs to be tested, 96-well skirted PCR plates, and 96-well flat-bottom, black, fluorescent assay plates. […]

CCND1 = experiment: In vitro transcription-translation (IVTT) assay, CCND1 reporter
Outline: as §1

ALK = experiment: In vitro transcription-translation (IVTT) assay, ALK reporter
Outline: as §1

KRAS G12D = experiment: In vitro transcription-translation (IVTT) assay, KRAS G12D reporter
Outline: as §1

Measured: IC50

COc1ccc(C[C@H]2NC[C@H](O)[C@H]2OC(=O)NC[C@H]2CCCNC2)cc1 [V187930, (2R,3S,4S)-4-hydroxy-2-[(4-methoxyphenyl)methyl]pyrrolidin-3-yl N-[(3S)-piperidin-3-ylmethyl]carbamate]
> 30 µM: BCL-2
20 to 30 µM: MYC | MCL-1 | CCND1

COc1ccc(C[C@H]2NC[C@H](O)[C@H]2OC(=O)NCc2nc(Cl)c(Cl)[nH]2)cc1 [V187824, (2R,3S,4S)-4-hydroxy-2-[(4-methoxyphenyl)methyl]pyrrolidin-3-yl N-[(4,5-dichloro-1H-imidazol-2-yl)methyl]carbamate]
> 30 µM: MYC | MCL-1 | BCL-2 | CCND1

COc1ccc(C[C@H]2NC[C@H](O)[C@H]2OC(=O)NCCc2cc[nH]n2)cc1 [V187698, (2R,3S,4S)-4-hydroxy-2-[(4-methoxyphenyl)methyl]pyrrolidin-3-yl N-[2-(1H-pyrazol-3-yl)ethyl]carbamate; trifluoroacetic acid]
< 10 µM: all assays above

COc1ccc(C[C@H]2NC[C@H](O)[C@H]2OC(=O)NCc2ccn[nH]2)cc1 [V187321, (2R,3S,4S)-4-hydroxy-2-[(4-methoxyphenyl)methyl]pyrrolidin-3-yl N-(2H-pyrazol-3-ylmethyl)carbamate; trifluoroacetic acid]
< 10 µM: all assays above

COc1ccc(C[C@H]2NC[C@H](O)[C@H]2OC(=O)NCc2ccc(-c3ccccc3)cc2)cc1 [V187977, (2R,3S,4S)-4-hydroxy-2-[(4-methoxyphenyl)methyl]pyrrolidin-3-yl N-{[1,1′-biphenyl]-4-ylmethyl}carbamate]
> 30 µM: MYC | MCL-1 | BCL-2 | CCND1

COc1ccc(C[C@H]2NC[C@H](O)[C@H]2OC(=O)NCc2c[nH]cn2)cc1 [V187192, (2R,3S,4S)-4-hydroxy-2-[(4-methoxyphenyl)methyl]pyrrolidin-3-yl N-(1H-imidazol-4-ylmethyl)carbamate]
< 10 µM: all assays above

COc1ccc(C[C@H]2NC[C@H](O)[C@H]2OC(=O)NCCNc2ncnc3nc[nH]c23)cc1 [V188060, (2R,3S,4S)-4-hydroxy-2-[(4-methoxyphenyl)methyl]pyrrolidin-3-yl N-[2-(7H-purin-6-ylamino)ethyl]carbamate]
> 30 µM: MCL-1 | BCL-2
20 to 30 µM: CCND1
10 to 20 µM: MYC

COc1ccc(C[C@H]2NC[C@H](O)[C@H]2OC(=O)NCCc2cc(C)on2)cc1 [V187719, (2R,3S,4S)-4-hydroxy-2-[(4-methoxyphenyl)methyl]pyrrolidin-3-yl N-[2-(5-methyl-1,2-oxazol-3-yl)ethyl]carbamate]
< 10 µM: MYC | MCL-1 | CCND1
10 to 20 µM: BCL-2

COc1ccc(C[C@H]2NC[C@H](O)[C@H]2OC(=O)NCC(=O)NCC(N)=O)cc1 [V188021, (2R,3S,4S)-4-hydroxy-2-[(4-methoxyphenyl)methyl]pyrrolidin-3-yl N-[(carbamoylmethylcarbamoyl)methyl]carbamate]
10 to 20 µM: MCL-1
20 to 30 µM: MYC | BCL-2 | CCND1

COc1ccc(C[C@H]2NC[C@H](O)[C@H]2OC(=O)NCc2ccnc(OC)c2)cc1 [V188051, (2R,3S,4S)-4-hydroxy-2-[(4-methoxyphenyl)methyl]pyrrolidin-3-yl N-[(2-methoxypyridin-4-yl)methyl]carbamate]
< 10 µM: MYC | MCL-1 | BCL-2 | CCND1
